The source of these data is ChEMBL document CHEMBL1201862, “PubChem BioAssay data set” (2004).

Among the test systems are A498; BT-549; CCRF-CEM; COLO 205; HCT-15; HT-29; IGROV-1; K562; M14; MOLT-4; OVCAR-8; RXF 393; SK-MEL-28; SK-MEL-2; SNB-19; UACC-257; HOP-62; KM12; OVCAR-4; HOP-92.
What all share (assay): NCI anticancer screen, dose series, 48 h

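Step 1: Grow cells in 96-well plates. Step 2: Expose to compound for 48 hours at 5 concentrations. Step 3: Interpolate endpoints linearly; if unreached, use highest concentration. GI50: concentration for 50% inhibition of growth.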 Active and inactive are the calls of the source. Rule as the data show it: active = GI50 up to about 1.1 µM and inactive = higher.

`O=C(Nc1ccc(C(F)(F)F)cc1)NC(F)(F)F`: the GI50 in the assay on A498 is > 100 µM (inactive); in the assay with BT-549, > 100 µM (inactive); in the assay with CCRF-CEM, > 100 µM (inactive); with COLO 205, > 100 µM (inactive); in the assay with HCT-15, greater than 100 µM; in the assay on HT-29 it was > 100 µM (inactive). Besides, the GI50 with IGROV-1, with K562, in the assay with M14, in the assay with MOLT-4, with OVCAR-8 and in the assay on RXF 393 was > 100 µM (inactive) throughout. For the same compound, the GI50 with SK-MEL-28, with SK-MEL-2, in the assay with SNB-19 and in the assay on UACC-257 was > 100 µM (inactive) each time.

For `Nc1ccc2c(c1)nc1n2C(c2c(F)cccc2F)SC1` (stereo not drawn), the GI50 in the assay on A498 is > 100 µM (inactive); in the assay with BT-549 it was > 100 µM (inactive); with CCRF-CEM, 61.2 µM (inactive); with COLO 205, > 100 µM (inactive); in the assay with HCT-15 it was greater than 100 µM; in the assay with HOP-62 it was > 100 µM (inactive). Moreover, the GI50 is > 100 µM (inactive) with HT-29; > 100 µM (inactive) in the assay on IGROV-1; > 100 µM (inactive) in the assay with K562; > 100 µM (inactive) in the assay on KM12; > 100 µM (inactive) with M14; 26.9 µM (inactive) in the assay with MOLT-4. In addition, the GI50 in the assay on OVCAR-4, in the assay with OVCAR-8, in the assay on RXF 393, with SK-MEL-28, in the assay with SK-MEL-2 and with SNB-19 was > 100 µM (inactive) throughout. For the same compound, the GI50 with UACC-257 is > 100 µM (inactive).

For the compound `COc1cc2nc(-c3cccs3)nc(N3C(c4cc(OC)c(OC)c(OC)c4)=NNC(=O)c4ccccc43)c2cc1OC`, the GI50 in the assay with A498 was > 100 µM (inactive); in the assay with BT-549, 18.9 µM (inactive); in the assay on COLO 205, > 100 µM (inactive); with HCT-15, 13.5 µM; in the assay on HOP-62 it was 66.8 µM (inactive); in the assay with HOP-92, 78.5 µM (inactive). For the same compound, the GI50 with HT-29 is 23.3 µM (inactive); with IGROV-1, 33.9 µM (inactive); in the assay with K562, 8.34 µM (inactive); in the assay with KM12, 18.5 µM (inactive); with M14 it was 15.3 µM (inactive); with MOLT-4, > 100 µM (inactive). Moreover, the GI50 in the assay with OVCAR-4 is 13.9 µM (inactive); in the assay with OVCAR-8, 3.4 µM (inactive); with SK-MEL-28 it was 21.9 µM (inactive); with SK-MEL-2, 76 µM (inactive); with SNB-19 it was 16.4 µM (inactive); in the assay with UACC-257 it was 35.3 µM (inactive).

As to `CC(=O)OCC1OC(c2nc3ccccc3s2)=CC(OC(C)=O)C1OC(C)=O` (stereo not drawn), the GI50 with A498, in the assay on BT-549, with CCRF-CEM, in the assay on COLO 205, with HOP-62 and in the assay on HT-29 was > 100 µM (inactive) each time. In addition, the GI50 with IGROV-1 is > 100 µM (inactive); with K562 it was 50.5 µM (inactive); in the assay with KM12, > 100 µM (inactive); in the assay with MOLT-4, > 10 µM (inactive); in the assay on OVCAR-4 it was > 100 µM (inactive); in the assay with OVCAR-8 it was > 100 µM (inactive). In addition, the GI50 was 78.3 µM (inactive) in the assay on RXF 393, > 100 µM (inactive) with SK-MEL-28, > 100 µM (inactive) with SNB-19 and > 100 µM (inactive) in the assay with UACC-257.

On to `CC(C)OP(=O)(OC(C)C)C(C(C)C)N(C)/C(N)=N\C1=NC(C(F)(F)F)(C(F)(F)F)N=C(C(C(F)(F)F)C(F)(F)F)O1` (stereo not drawn), for which the GI50 was 5.2 µM (inactive) in the assay on A498; 2.79 µM (inactive) with BT-549; 0.664 µM (active) in the assay on CCRF-CEM; 1.8 µM (inactive) with COLO 205; 3.75 µM with HCT-15; 3.96 µM (inactive) in the assay on HOP-62. In addition, the GI50 in the assay on HT-29 was 2.46 µM (inactive); with IGROV-1 it was 2.39 µM (inactive); with K562, 1.76 µM (inactive); in the assay with KM12, 3.4 µM (inactive); with M14, 1.41 µM (inactive); in the assay with MOLT-4, 1.49 µM (inactive). Moreover, the GI50 in the assay on OVCAR-8 was 1.99 µM (inactive); with RXF 393, 1.6 µM (inactive); in the assay with SK-MEL-28, 3.18 µM (inactive); in the assay with SK-MEL-2, 9.44 µM (inactive); in the assay on SNB-19 it was 11.9 µM (inactive); in the assay with UACC-257, 3.05 µM (inactive).

`CC(C)(CCC(C)(C)N1OC1c1ccccc1)N1OC1c1ccccc1` (stereo not drawn): the GI50 in the assay on A498 is 32 µM (inactive); in the assay on BT-549, 38.3 µM (inactive); in the assay on CCRF-CEM, 9.31 µM (inactive); in the assay with COLO 205, 47.2 µM (inactive); in the assay with HCT-15, 28.6 µM; in the assay with HOP-92, 33.4 µM (inactive). The GI50 was 54.7 µM (inactive) with HT-29; 13.4 µM (inactive) with K562; 57.1 µM (inactive) in the assay on KM12; 86.3 µM (inactive) in the assay on OVCAR-4; > 100 µM (inactive) with OVCAR-8; > 100 µM (inactive) in the assay on SK-MEL-28. In addition, the GI50 in the assay with SK-MEL-2 was 21.5 µM (inactive); in the assay with SNB-19, 47.5 µM (inactive); in the assay with UACC-257, 25.1 µM (inactive).

As for `CC(C)(CC#N)c1cc(CC(C)(C)c2cc(CC(C)(C)c3cc(C(C)(C)C4(C)OCCO4)no3)no2)no1`, the GI50 with A498 is 28.9 µM (inactive); with BT-549, 52.5 µM (inactive); with CCRF-CEM, 45.8 µM (inactive); in the assay with COLO 205, > 100 µM (inactive); in the assay with HCT-15, 94.2 µM; in the assay with HOP-62 it was 27 µM (inactive). The GI50 in the assay on HT-29 is > 100 µM (inactive); with IGROV-1, 54.1 µM (inactive); in the assay with K562, > 100 µM (inactive); in the assay on KM12, > 100 µM (inactive); in the assay on M14, > 100 µM (inactive); with MOLT-4 it was > 100 µM (inactive). In addition, the GI50 in the assay with OVCAR-4 was 23.5 µM (inactive); in the assay on OVCAR-8 it was 51.9 µM (inactive); in the assay on RXF 393, 7.89 µM (inactive); in the assay with SK-MEL-28, > 100 µM (inactive); in the assay on SK-MEL-2 it was 42.7 µM (inactive); with SNB-19 it was 21.8 µM (inactive). The GI50 with UACC-257 is 67.6 µM (inactive).

For `CN(C)c1cc[n+](-c2nc([N-]C(=O)C(F)(F)F)nc3c2ncn3C2CC(O)C(CO)O2)cc1` (stereo not drawn), the GI50 is > 100 µM (inactive) with A498; > 100 µM (inactive) with BT-549; > 100 µM (inactive) in the assay on CCRF-CEM; > 100 µM (inactive) in the assay with COLO 205; greater than 100 µM in the assay on HCT-15; > 100 µM (inactive) in the assay with HOP-62. The GI50 with HT-29, in the assay on IGROV-1, with K562, with KM12, with M14 and with MOLT-4 was > 100 µM (inactive) in each case. Further, the GI50 in the assay with OVCAR-4, with OVCAR-8, in the assay on RXF 393, with SK-MEL-28, in the assay on SK-MEL-2 and with SNB-19 was > 100 µM (inactive) in each case.

For the compound `Cc1cccc(-c2cc(O)c3c(C)ccnc3n2)c1`, the GI50 in the assay with A498 was 0.791 µM (active); in the assay on BT-549, > 100 µM (inactive); in the assay with CCRF-CEM, 0.583 µM (active); with COLO 205 it was 0.208 µM (active); with HCT-15, 0.261 µM; in the assay on HOP-62, 0.597 µM (active). The GI50 is 0.339 µM (active) in the assay with HT-29; 0.681 µM (active) in the assay on IGROV-1; 0.139 µM (active) with K562; 0.209 µM (active) with KM12; 0.291 µM (active) with M14; 0.71 µM (active) in the assay with MOLT-4. Besides, the GI50 with OVCAR-4 is 8.41 µM (inactive); with OVCAR-8 it was 0.718 µM (active); in the assay with RXF 393, 0.455 µM (active); with SK-MEL-28, > 61.1 µM (inactive); in the assay with SK-MEL-2, 0.321 µM (active); in the assay with SNB-19, 0.447 µM (active).

In the case of `CCOC(=O)C1C(c2ccc(OC)cc2)c2c(nn(-c3ccccc3)c2O)CC1(O)OCC` (stereo not drawn), the GI50 with A498 is > 100 µM (inactive); in the assay with BT-549, > 100 µM (inactive); in the assay with COLO 205, 36.5 µM (inactive); in the assay on HCT-15, 77.4 µM; with HOP-62 it was > 100 µM (inactive); in the assay on HOP-92, > 100 µM (inactive). The GI50 was 27.4 µM (inactive) in the assay on HT-29; > 100 µM (inactive) in the assay on IGROV-1; 3.4 µM (inactive) in the assay on KM12; 19.7 µM (inactive) with M14; 2.45 µM (inactive) in the assay with MOLT-4; > 100 µM (inactive) in the assay with OVCAR-4. Also, the GI50 in the assay with OVCAR-8 was > 100 µM (inactive); in the assay with SK-MEL-28 it was > 100 µM (inactive); in the assay with SK-MEL-2, > 100 µM (inactive); in the assay with SNB-19, 10 µM (inactive); with UACC-257, 44.6 µM (inactive).

With `NC(=O)NNc1nc(-c2ccccc2)cs1`, the GI50 with A498 is > 100 µM (inactive); in the assay on BT-549 it was > 100 µM (inactive); in the assay with CCRF-CEM, 47 µM (inactive); in the assay on COLO 205 it was > 100 µM (inactive); in the assay with HCT-15 it was greater than 100 µM; in the assay on HOP-62, > 100 µM (inactive). The GI50 with HT-29, with IGROV-1, in the assay with K562, with KM12, with M14 and in the assay with MOLT-4 was > 100 µM (inactive) each time. Also, the GI50 with OVCAR-4, with OVCAR-8, in the assay with RXF 393, with SK-MEL-28, in the assay with SK-MEL-2 and in the assay on SNB-19 was > 100 µM (inactive) in each case. Further, in the assay on UACC-257, the GI50 was > 100 µM (inactive).
